{"source": "patent US20090022806A1", "about": "“Nanoparticle and polymer formulations for thyroid hormone analogs, antagonists and formulations and uses thereof” (priority 2006, published 2009)", "key": {"[1]": {"system": "platelets", "assay": "Collagen-induced platelet aggregation and secretion in whole blood (impedance)", "format": "cell-based, human", "details": "10-100 nM", "excerpt": "Platelet aggregation and de-granulation in whole blood using Impedance Technique: The Model 560 Whole-Blood Aggregometer and the associated Aggro-Link Software from the Chrono-Log Corporation were used in this study. Two electrodes are placed in diluted blood and an electrical impulse is sent from one to the other. As the platelets aggregate around the electrodes, the Chrono-Log measures the impedance of the electrical signal in ohms of resistance.\nThe blood was kept on a rocker to extend the life of the platelets, and experiments were done within 5 hours of phlebotomy.\nProcedure: For the control, 500 microliters of whole blood, 500 microliters of 0.9% saline, and a magnetic stir bar were mixed into a cuvette, and heated for five minutes to 37 degrees Celsius. Sub-threshold aggregation was induced with 5 microliters of 1-2 μg/ml Collagen, which the Aggregometer measured for 6-7 minutes. […] Ingerman-Wojenski C, Smith J B, Silver M J. Evaluation of electrical aggregometry: comparison with optical aggregometry, secretion of ATP, and accumulation of radiolabeled platelets. J Lab Clin Med. 1983 January; 101(1):44-52."}, "[2]": {"system": "Human dermal micro-vascular endothelial cells (HDMEC)", "assay": "Three-dimensional human micro-vascular endothelial sprouting assay", "format": "cell-based", "description": "In Vitro Three-Dimensional Sprout Angiogenesis of Human Dermal Micro-Vascular Endothelial Cells (HDMEC) Cultured on Micro-Carrier Beads Coated with Fibrin: Confluent HDMEC (passages 5-10) were mixed with gelatin-coated Cytodex-3 beads with a ratio of 40 cells per bead. Cells and beads (150-200 beads per well for 24-well plate) were suspended with 5 ml EBM+15% normal human serum, mixed gently every hour for first 4 hours, then left to culture in a CO2 incubator overnight. The next day, 10 ml of fresh EBM+5% HS were added, and the mixture was cultured for another 3 hours. Before experiments, the culture of EC-beads was checked; then 500 ul of PBS was added to a well of 24-well plate, and 100 ul of the EC-bead culture solution was added to the PBS. The number of beads was counted, and the concentration of EC/beads was calculated.\nA fibrinogen solution (1 mg/ml) in EBM medium with or without angiogenesis factors or testing factors was prepared. For positive control, 50 ng/ml VEGF+25 ng/ml FGF2 was used. EC-beads were washed with EBM medium twice, and EC-beads were added to fibrinogen solution. The experiment was done in triplicate for each condition. The EC-beads were mixed gently in fibrinogen solution, and 2.5 ul human thrombin (0.05 U/ul) was added in 1 ml fibrinogen solution; 300 ul was immediately transferred to each well of a 24-well plate. The fibrinogen solution polymerizes in 5-10 minutes; after 20 minutes, we added EBM+20% normal human serum+10 ug/ml aprotinin. The plate was incubated in a CO2 incubator. It takes about 24-48 hours for HDMEC to invade fibrin gel and form tubes.\nA micro-carrier in vitro angiogenesis assay previously designed to investigate bovine pulmonary artery endothelial cell angiogenic behavior in bovine fibrin gels [Nehls and Drenckhahn, 1995a, b] was modified for the study of human microvascular endothelial cell angiogenesis in three-dimensional ECM environments (FIGS. 1 and 2). Briefly, human fibrinogen, isolated as previously described [Feng et al, 1999], was dissolved in M199 medium at a concentration of 1 mg/ml (pH 7.4) and sterilized by filtering through a 0.22 micron filter. An isotonic 1.5 mg/ml collagen solution was prepared by mixing sterile Vitrogen 100 in 5×M199 medium and distilled water. The pH was adjusted to 7.4 by 1N NaOH. In certain experiments, growth factors and ECM proteins (such as VEGF, bFGF, PDGF-BB, serum, gelatin, and fibronectin) were added to the fibrinogen or collagen solutions. About 500 EC-beads were then added to the 1 mg/ml fibrinogen or 1.5 mg/ml collagen solutions. Subsequently, EC-beads-collagen or EC-beads-fibrinogen suspension (500 EC-beads/ml) was plated onto 24-well plates at 300 ul/well. EC-bead-collagen cultures were incubated at 37° C. to form gel. The gelling of EC-bead-fibrin cultures occurred in less than 5 minutes at room temperature after the addition of thrombin to a final concentration of 0.5 U/ml. After gelation, 1 ml of fresh assay medium (EBM supplemented with 20% normal human serum for HDMEC or EBM supplemented with 10% fetal bovine serum was added to each well. The angiogenic response was monitored visually and recorded by video image capture. Specifically, capillary sprout formation was observed and recorded with a Nikon Diaphot-TMD inverted microscope (Nikon Inc.; Melville, N.Y.), equipped with an incubator housing with a Nikon NP-2 thermostat and Sheldon #2004 carbon dioxide flow mixer. The microscope was directly interfaced to a video system consisting of a Dage-MTI CCD-72S video camera and Sony 12″ PVM-122 video monitor linked to a Macintosh G3 computer. The images were captured at various magnifications using Adobe Photoshop. The effect of angiogenic factors on sprout angiogenesis was quantified visually by determining the number and percent of EC-beads with capillary sprouts. One hundred beads (five to six random low power fields) in each of triplicate wells were counted for each experimental condition. All experiments were repeated at least three times. […]"}, "[3]": {"system": "phosphorylated ERK1/2 in ECV304 endothelial cells", "assay": "MAPK (ERK1/2) activation in ECV304 cells, nuclear pERK1/2 immunoblot", "format": "cell-based", "details": "T4 10^−7 mol/L, 15 minutes to 6 hours", "description": "ECV304 endothelial cells were cultured in M199 medium with 0.25% hormone-depleted serum 13 for 2 days. […] Nuclear fractions were pre-pared from all samples by our method reported previously, the proteins separated by polyacrylamide gel electrophoresis, and transferred to membranes for immunoblotting with antibody to phosphorylated ERK 1/2."}, "[4]": {"details": "hormone 0.1 uM alone, pretreated FGF2 1.25 ng/ml + VEGF […], day 3"}}, "data": [{"smiles": "N[C@@H](Cc1cc(I)c(Oc2cc(I)c(O)c(I)c2)c(I)c1)C(=O)O", "note": "[T4, L-thyroxine]", "values": [{"measurement": "enhancing platelet aggregation and secretion (de-granulation)", "setting": "[1]", "result": "effective"}, {"measurement": "stimulation of angiogenesis", "setting": "[2]; 0.01-0.1 μM", "result": "significant (P<0.01) stimulation of angiogenesis"}, {"measurement": "Mean Tube Vessel Length (mm) ± SD", "setting": "[2]; FGF2 25 ng + VEGF 50 ng, T3 20 ng, T4 23 ng, T4-agarose 23 ng, pre-treated with FGF2 1.25 ng/ml + VEGF […]", "result": "1.65 ± 0.15", "unit": "mm"}, {"measurement": "Mean number of Migrated cells ± SD", "setting": "[2]; [4]", "result": "182 ± 11"}, {"measurement": "Mean vessel Length (mm) ± SD", "setting": "[2]; [4]", "result": "1.16 ± 0.21", "unit": "mm"}, {"measurement": "time of maximal phosphorylation and nuclear translocation of ERK1/2", "setting": "[3]", "result": 30, "unit": "min"}]}]}
